Laboratory results from US20120009590A1, “DEVICE AND NON-TOXIC COMPOSITIONS AND METHODS FOR PERMEABILIZATION OF DROSOPHILA EMBRYOS” (The University of Vermont and State Agriculture College, priority 2009, published 2012).

Assays:
engrailed-GFP embryos = conditions: EPS-permeabilized embryos
Experimental: Incubations of permeabilized embryos were carried out in two types of chambers. Longer-term incubations (6-48 hours) were done in a modified nitex basket (see FIG. 1). The basket-reservoir apparatus was covered with a tight fitting cap to limit evaporation and was incubated at 18° C. for continued development of the embryo. Short term incubations <3 hours were done in a slide chamber (see FIG. 2A). […] Incubations for early embryonic endpoints were done at room temperature and for later developmental endpoint (e.g. gut development and engrailed patterning) at 18° C.
Drug treatments were done by additions to the PBS solution reservoir during incubation in either the slide or basket chambers. Drugs used were: cycloheximide (Fluka 01810, MW=281.35, 50 mM stock in H2O), colchicine (Biomol Labs T118, MW=[…] in H2O), methylmercury chloride (Aldrich 442534, MW=251, 50 mM stock in DMSO), cytochalasin D (Sigma C8273, MW=507.6, 5 mM stock in DMSO) and cyclophosphamide (LKT C9609, MW=279.1, 100 mM stock in H2O).
The engrailed gene encodes a homeodomain transcription factor that is highly conserved in all metazoans. Engrailed is a segment polarity gene whose expression marks the […] boundary of each segment in the embryo. Engrailed also function in neural development to define developing brain regions and regulate growth of axons.

Drosophila embryos = assay: Midgut development by blue yolk auto-fluorescence at Stage 16; type: in vivo, Drosophila melanogaster; conditions: EPS-treated 3 hr old embryos, 10 μM, 18° C., 20 hours
Experimental: The embryo develops into a larva in 22-24 hours at 25° C. (refer to FIG. 9A). […] We investigated a variety of morphological events leading up to stage 17 for potentially easily identifiable endpoints. Through monitoring development under fluorescence time-lapse imaging we observed the highly dynamic pattern of blue fluorescence emitted from the auto-fluorescence of yolk proteins in the embryo. At preblastodem stages a relatively uniformly dispersed blue fluorescence is seen across the embryo (FIG. 11A). Between 3-6 hours of development this pattern changes drastically as the yolk proteins are pushed aside during germband elongation (refer to FIG. 9A). […] Blue fluorescence is seen to consolidate in the lumen of the gut initially as one large mass in the newly fused midgut (FIG. 11A, 12 hrs). […] The compartmentalized strong blue fluorescence in the midgut makes normally developed Stage 16/17 embryos easily discernable under fluorescence (FIG. 11A, 14 hrs).
We next tested the utility of this endpoint to examine small molecule toxicity by exposing permeabilized embryos to cycloheximide (CHX), a potent protein synthesis inhibitor and teratogen. EPS-treated 3 hr old embryos were incubated in the presence (FIG. 11 D, E) or absence (FIG. 11A,B,C) of 10 μM CHX at 18° C. for 20 hours (equivalent to 10 hours at 25° C.) and examined under blue fluorescence. […]

Dorsal-GFP embryos = assay: Dorsal-GFP reporter in preblastoderm embryos; type: in vivo, Drosophila melanogaster; conditions: EPS treated preblastoderm embryos
Text: We turned to the Dorsal-GFP transgenic fusion construct reporter to further examine the effects of the teratogen CHX. The Dorsal protein is the Drosophila NF-κB homolog which is central to signaling that establishes the dorsal-ventral axis in the embryo. Dorsal protein localizes to ventral cell nuclei where it acts to define the D/V axis.
Using this same Dorsal-GFP construct we see dynamic distribution of Dorsal-GFP in and out of the ventral nuclei of an EPS treated pre-blastoderm embryos (FIG. 13A, B). […] In many cases these early embryos are seen to stall in development. […] Embryos affected at slightly later stages show irregular nuclear Dorsal accumulation (FIG. 13D) as well as varied sizes in the nuclei present (FIG. 13E). It is interesting to note that these deformities occur more frequently in the anterior portion of the embryo, consistent with the gradient of dye dispersal seen in EPS treated embryos.

Canton S embryos = assay: Scoring of cephalic furrow formation and germband elongation in embryos; type: in vivo, Drosophila melanogaster
Experimental: Effects of EPS and cycloheximide or other agents on embryo development were scored using contemporaneous DIC optics and fluorescent visualization. Canton S embryos were collected from a 3 hr laying and aged one additional hour at 25° C. Embryos were treated with 1:10 EPS in H2O for 30-60 seconds followed by washing and immersion in 1 mM rhodamine B dye in PBS for 5 minutes with rocking. Embryos were washed four times in PBS and immersed in PBS containing 10 μM cycloheximide on a Kiehart slide. Embryos were allowed to develop an additional 1.5 hours at ambient temperature (˜23° C.). […] Variable treatments included omission of EPS exposure or omission of cycloheximide or other toxic agent. Each condition was assayed in three independent preparations of embryos with >180 embryos scored for each treatment condition.
We next sought to determine the feasibility of using an early embryogenesis endpoint as an indicator of teratogenic effects. In separate experiments using flies carrying the GFP reporter for the Dorsal protein we determined that CHX had profound effects on the morphogenetic movements of the embryo in the first 3-5 hours of development (see FIG. 13 below). During these stages formation of the cephalic furrow and germband elongation serve as landmarks that are easily identifiable under differential interference contrast (DIC) microscopy (see FIG. 8). […]

Miscibility with water = type: physicochemical; conditions: without surfactant
Experimental: The presence of at least one surfactant is required to allow for the formation of a stable emulsion for sufficient time to allow for permeabilization of the embryos (i.e., at least about 10 minutes).

In the case of `[CH3][Hg][Cl]` [MeHg, methylmercury chloride], the “engrailed-GFP expression pattern and embryo development” value (engrailed-GFP embryos) is reported as “stalls the embryo at Stage 11 and disrupts the regularity of engrailed banding pattern”.
In the case of `C[C@@H]1C[C@@H]([C@H](O)CC2CC(=O)NC(=O)C2)C(=O)[C@@H](C)C1` [CHX, cycloheximide], the “gut development (blue fluorescence pattern)” value (Drosophila embryos) is reported as “induced gut malformation”, the “pattern of nuclear divisions and Dorsal-GFP distribution” value (Dorsal-GFP embryos) is reported as “gross deformities in the pattern of nuclear divisions and Dorsal distribution” and the cephalic furrow formation (Canton S embryos; 2.5 hr old permeabilized embryos, 10 μM, 1.5 hours) is reported as “disruption of cephalic furrow formation”. For the same compound, the “EPS treated embryos with abnormal formation of the cephalic furrow” value (Canton S embryos; CHX 10 μM, EPS treated embryos) was “more than 80%”.
In the case of `C=C1[C@@H](C)[C@H]2[C@H](Cc3ccccc3)NC(=O)[C@]23[C@H](OC(C)=O)/C=C/[C@@](C)(O)C(=O)[C@@H](C)C/C=C/[C@H]3[C@@H]1O` [Cytochalasin D, cytochalasin D], the “engrailed-GFP expression pattern and embryo development” value (engrailed-GFP embryos) is reported as “stalling of embryo development at Stage 11 with gaps in the Engrailed band of cells in several segments”.
For `O=P1(N(CCCl)CCCl)NCCCO1` (centres unmarked) [cyclophosphamide], the “engrailed-GFP expression pattern and embryo development” value (engrailed-GFP embryos) was “overall shortening of the embryo and generates breaks in the bands of engrailed expressing cells”.
In the case of `C=C(C)C1CC=C(C)CC1` [Limonene, D-Limonene], the miscibility with water (Miscibility with water) is reported as “not miscible with water”.
